# Source: publication PMC7066176, “Crystal structure of a lipin/Pah phosphatidic acid phosphatase” (Nature Communications, 2020)
# Biological target: T1, Tt Pah2 (Tetrahymena thermophila, UniProt I7MFJ3)
# T1 construct: gene TTHERM_00215970; residues 1-321 (lacks 14 C-terminal residues of 335), codon-optimised, E. coli; ppSUMO His-SUMO tag cleaved by ULP-1, or pET28 N-terminal His tag kept
# T1 sequence (I7MFJ3 1-321): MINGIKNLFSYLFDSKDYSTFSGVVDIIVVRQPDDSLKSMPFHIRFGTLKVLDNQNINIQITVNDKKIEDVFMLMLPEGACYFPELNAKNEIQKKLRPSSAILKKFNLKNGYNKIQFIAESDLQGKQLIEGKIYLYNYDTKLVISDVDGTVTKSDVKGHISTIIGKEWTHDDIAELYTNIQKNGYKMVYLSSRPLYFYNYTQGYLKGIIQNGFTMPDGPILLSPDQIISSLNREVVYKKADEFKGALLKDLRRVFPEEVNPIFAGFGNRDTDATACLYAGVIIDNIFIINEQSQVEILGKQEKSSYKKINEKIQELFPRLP
# Assay: liposome sedimentation, SDS-PAGE
# Format: binding
# Details: 20 mol% POPA liposomes with 40 mol% POPE and POPC, pH 7.5, room temperature; preferential over neutral and POPS liposomes
smiles,measurement,value
CCCCCCCC/C=C\CCCCCCCC(=O)O[C@H](COC(=O)CCCCCCCCCCCCCCC)COP(=O)(O)O [POPA],"liposome sedimentation, SDS-PAGE","Tt Pah2 also preferentially interacted with PA-containing liposomes, in comparison with neutral or anionic PS-enriched"
